The values that follow come from PMC11249953, “c-KIT inhibitors reduce pathology and improve behavior in the Tg(SwDI) model of Alzheimer’s disease” (Life Science Alliance, 2024).

What is called Tmax is the time from dosing to the highest level. Broadly, the AUC is concentration integrated over time. Low readings indicate less exposure, high ones more exposure. A word on the Cmax: it is the highest concentration seen after dosing.

The structures appear in SMILES notation. “And” between values parts separate entries of the source, which are not always exact repeats. Identical values can stand only once. Like-named read-outs stand apart in the source and are kept apart here.

The subject of one data set is TgAPP mice. The experiment in a line: Elevated plus maze, TgAPP mice. The class given is in vivo, mouse. As to conditions: 45 mg/kg IP, 6 wk, vs DMSO. As to the method:
The elevated plus maze was performed using a standard set up, with two enclosed arms and two open arms. Mice were placed at the intersection of the open and closed arms and allowed to freely explore for 5 min, two times. Time spent in the open and closed arms and number of entries into the open and closed arms were recorded.

Data set [1] is described as follows: Pharmacokinetic analysis of BK40197 (brain and serum, LC-MS/MS). The class given is in vivo, C57BL/6 mice. The settings on record: for Kp / Tmax / AUC / Cmax: both sexes, C57BL/6, mouse; for Kp: brain/serum, intraperitoneal, read-out: brain to serum ratio. As to the method:
The PK profile of BK40197 was investigated after single IP doses of 20 and 45 mg/kg BK40197 to male and female 5–6 mo old C57BL/6 mice compared with DMSO. A solution at 5 ng/ml isotope labelled reference compounds d8-BK40197 was prepared. The solvent used for internal standard (ISTD) dilution is (200 ml/50 ml) acetonitrile/ethyl acetate (ACN/EtOAc). Brain tissue was homogenized in ice water bath and was prepared using weight accurately on analytical balance with 4 decimals. A volume water (MilliQ) was added by adjustable 100–1,000 μl to a concentration at 100 mg brain tissue/ml water. Brain homogenate (25 μl) and plasma sample (25 μl) that was thawed to RT and gently mixed were pipetted to eppendorf tube with lid and 75 μl ISTD added, mixed on vortex and centrifuged for 5 min at […]. A volume of 25 μl milli-Q water and 75 μl brain or plasma samples were added into a 200 μl PE vial and mixed on vortex and 10 μl and injected on LC-MS/MS. All animal work was approved by GUACUC.

Another data set has as its system mice. The experiment in a line: Rotarod (source data sheets only, mouse line not given). As to conditions: for Rotarod trial 1 / Rotarod trial 2: Day 1; for Rotarod trial 1 / Rotarod trial 2 / Rotarod trial 3 / Rotarod trial 4 / Rotarod trial 5 / Rotarod trial 6 / Rotarod D1 AVG / Rotarod D2 AVG / Rotarod D3 AVG / Rotarod Total AVG: individual mice, listed as 143; for Rotarod trial 3 / Rotarod trial 4: Day 2; for Rotarod trial 5 / Rotarod trial 6: Day 3. In kind it is in vivo.

`Cc1cccc(-c2cc3nccc(N4CCOCC4)c3s2)c1` [BK40197]: the “elevated plus maze: time in the open arms” value in the data set with TgAPP mice was “spent significantly greater time in the open arms of the elevated plus maze”. Also, the Kp turned out to be 0.251 in data set [1] (20 mg/kg IP) and 0.201 in data set [1] (45 mg/kg IP). For the same molecule, the Tmax stood at 2 h in data set [1] (brain, 20 mg/kg single IP, read-out: Brain Tmax); 2 h in data set [1] (brain, 45 mg/kg single IP, read-out: Brain Tmax); 1 h in data set [1] (serum, 20 mg/kg single IP, read-out: Serum Tmax); 1 h in data set [1] (serum, 45 mg/kg single IP, read-out: Serum Tmax). For the same molecule, the exposure (AUC) stood at 928 ng·h/mL in data set [1] (serum, 20 mg/kg single IP) and 1940 ng·h/mL in data set [1] (serum, 45 mg/kg single IP). The Cmax in data set [1] (serum, 20 mg/kg single IP) amounted to 543 ± 82.3 ng/g; in data set [1] (serum, 45 mg/kg single IP), 1100 ± 165 ng/g. In addition, in data set [1] (single IP dose, C57BL/6 mice), the brain penetrance result is “brain penetrant”.
On to `Cc1cccc(-c2cc3nccc(Nc4ccccc4)c3s2)c1` [BK40143], for which, in the data set with mice (2.5mg/kg), the “Rotarod D1 AVG, group mean” value was 20.1429 s; the “Rotarod D2 AVG, group mean” value was 81.5714 s; the “Rotarod D3 AVG, group mean” value amounted to 111.786 s; the “Rotarod Total AVG, group mean” value came to 71.1667 s. In the data set on mice (2.5mg/kg), the “Rotarod trial 1” value was 2 s and 8 s and 4 s and 23 s and 9 s and 22 s; the “Rotarod trial 2” value was 5 s and 11 s and 17 s and 22 s and 130 s and 10 s; the “Rotarod trial 3” value was 13 s and 135 s and 4 s and 46 s and 129 s and 117 s; the “Rotarod trial 4” value is 29 s and 169 s and 6 s and 101 s and 155 s and 230 s and 4 s. Also, in the data set on mice (2.5mg/kg), the “Rotarod trial 5” value is 15 s and 204 s and 111 s and 60 s and 154 s and 195 s and 10 s; the “Rotarod trial 6” value was 60 s and 172 s and 53 s and 88 s and 157 s and 272 s and 14 s; the “Rotarod D1 AVG” value was 3.5 s and 9.5 s and 10.5 s and 12 s and 76.5 s and 13 s and 16 s; the “Rotarod D2 AVG” value is 21 s and 152 s and 5 s and 73.5 s and 142 s and 117 s and 60.5 s. Further, in the data set on mice (2.5mg/kg), the “Rotarod D3 AVG” value is 37.5 s and 188 s and 82 s and 74 s and 155.5 s and 233.5 s and 12 s; the “Rotarod Total AVG” value is 20.6667 s and 116.5 s and 32.5 s and 53.1667 s and 124.667 s and 121.167 s and 29.5 s. Also, in the data set on mice (5.0mg/kg), the “Rotarod D1 AVG, group mean” value worked out at 27.2 s; the “Rotarod D3 AVG, group mean” value came to 90.7 s; the “Rotarod trial 1” value was 54 s and 21 s and 19 s and 2 s and 14 s and 5 s and 29 s and 3 s and 1 s; the “Rotarod trial 2” value was 96 s and 41 s and 147 s and 28 s and 9 s and 38 s and 8 s and 10 s and 16 s and 1 s. Besides, in the data set on mice (5.0mg/kg), the “Rotarod trial 3” value is 47 s and 74 s and 152 s and 42 s and 51 s and 45 s and 18 s and 6 s and 5 s and 3 s; the “Rotarod trial 4” value is 46 s and 47 s and 178 s and 87 s and 35 s and 44 s and 66 s and 4 s and 32 s and 5 s; the “Rotarod trial 5” value was 80 s and 109 s and 179 s and 107 s and 92 s and 172 s and 35 s and 61 s and 62 s and 2 s; the “Rotarod trial 6” value was 110 s and 99 s and 139 s and 103 s and 133 s and 151 s and 84 s and 20 s and 69 s and 7 s. Further, in the data set with mice (5.0mg/kg), the “Rotarod D1 AVG” value was 75 s and 31 s and 83 s and 15 s and 11.5 s and 20 s and 6.5 s and 19.5 s and 9.5 s and 1 s; the “Rotarod D2 AVG” value is 46.5 s and 60.5 s and 165 s and 64.5 s and 43 s and 44.5 s and 42 s and 5 s and 18.5 s and 4 s; the “Rotarod D3 AVG” value is 95 s and 104 s and 159 s and 105 s and 112.5 s and 161.5 s and 59.5 s and 40.5 s and 65.5 s and 4.5 s; the “Rotarod Total AVG” value was 72.1667 s and 65.1667 s and 135.667 s and 61.5 s and 55.6667 s and 75.3333 s and 36 s and 21.6667 s and 31.1667 s and 3.167 s.
